Assay results as given in paper PMC12593409, “Heterochiral and Heterotypic Self-Assembly of Intrinsically Disordered Peptides Confers Peptide Supercoils with Exceptional Proteolytic Stability” (Journal of the American Chemical Society, 2025).
Read-outs that look alike come from different tables or passages of the source. Non-standard residues stand in square brackets, D forms with d. Residues, ends and D or L forms follow the SMILES beside them. *: point of attachment. Acetyl(1-pyrenyl) = O=C(Cc1ccc2ccc3cccc4ccc1c2c34)*; d(pY) = N[C@H](Cc1ccc(OP(=O)(O)O)cc1)C(=O)O; pY = N[C@@H](Cc1ccc(OP(=O)(O)O)cc1)C(=O)O

Experiments:
[1] = target: proteinase K (Parengyodontium album, UniProt P06873); assay: Proteolytic stability against proteinase K, followed by LC/MS
Chain of proteinase K (P06873 106-384): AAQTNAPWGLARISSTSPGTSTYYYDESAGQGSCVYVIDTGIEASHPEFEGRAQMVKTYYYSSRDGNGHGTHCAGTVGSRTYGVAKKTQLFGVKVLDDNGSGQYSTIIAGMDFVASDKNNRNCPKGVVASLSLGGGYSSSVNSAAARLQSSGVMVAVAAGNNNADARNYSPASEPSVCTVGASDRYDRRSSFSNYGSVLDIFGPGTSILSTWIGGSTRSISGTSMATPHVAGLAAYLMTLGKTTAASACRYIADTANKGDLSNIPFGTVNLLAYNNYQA
Description: At designated time points, we quenched the reactions and analyzed them by LC/MS (Figures S34, S52–S53, and Table S1).
Proteinase K Treatment: To 200 µL solutions containing peptides 1, 2, 3, 4, and their mixtures (1/2, 1/4, 3/2, 3/4) in double-distilled water, 2 µL of a 100 mg/mL proteinase K stock solution was added to achieve a final concentration of 1 mg/mL. The reactions were incubated at 37 °C. For controls, 40 µL aliquots were withdrawn from each solution prior […]
were rapidly frozen in liquid nitrogen to stop the reaction. Samp les were then lyophilized at −80 °C, reconstituted in 0.1% TFA in H2O/acetonitrile (1:1 v/v), filtered, and analyzed […]
LC/MS analysis was performed with solvent A (water + 0.1% formic acid) and solvent B (acetonitrile + 0.1% formic acid) with a gradient program using the following separation […]
13.1 min 95%A, 5%B; 14 min 95%A, 5%B. The mass spectrometer was operated in positive ion mode, scanning a range of 50 –3000 m/z.

[2] = test system: alkaline phosphatase (ALP); assay: in vitro; settings: alkaline phosphatase (ALP, 1 U/mL)
Description: (§1) (D) Kinetics of ALP-mediated dephosphorylation under similar conditions using 1 U/mL ALP.
(§2) To further validate the structural hypothesis, we performed enzymatic assays using ALP, which removes phosphate groups from both D- and L-tyrosines and has been widely used to explore enzyme-instructed self-assembly (EISA). , This setup isolates Pyn-EEEEEpY as the reactive component, allowing us to assess the impact of coassembly with Pyn-KKKKKK on dephosphorylation kinetics. Using the same protocol as the protease experiments, we measured the rate of dephosphorylation for Pyn-EEEEEpY monomers and their homo- and heterochiral mixtures with two equivalents of Pyn-KKKKKK (Figure S54 and Table S2).

[3] = test system: alkaline phosphatase (ALP); settings: 1 U/mL ALP, 37 °C, neutral pH, monomeric peptide, LC/MS
Description: as §1, §2

Pyn-(L)-EEEEEpY/Pyn-(D)-kkkkkk [1/2]
cleavage slower than for Pyn-(L)-EEEEEpY (1) alone [1]: over 360 times | state of Pyn-(L)-EEEEEpY (1) under proteinase K for up to 24 h [1]: remained largely intact | thalf of Pyn-(L)-EEEEEpY (1) in proteinase K digestion [1]: > 3600 min

NCCCC[C@H](NC(=O)[C@H](CCCCN)NC(=O)[C@H](CCCCN)NC(=O)[C@H](CCCCN)NC(=O)[C@H](CCCCN)NC(=O)[C@H](CCCCN)NC(=O)Cc1ccc2ccc3cccc4ccc1c2c34)C(=O)O [compound 4, Pyn-(L)-KKKKKK]
proteolysis of Pyn-(L)-KKKKKK (4) alone ([1]; 1 mg/mL proteinase K, 37 °C, peptide alone, LC/MS (Figure S35B)): largely resistant to proteolysis

Pyn-(L)-EEEEEpY/Pyn-(L)-KKKKKK [1/4]
increase in half-life compared to the L-peptide (1) alone [1]: 287 fold | thalf of Pyn-(L)-EEEEEpY (1) in proteinase K digestion [1]: 2872 min

O=C(O)CC[C@H](NC(=O)Cc1ccc2ccc3cccc4ccc1c2c34)C(=O)N[C@@H](CCC(=O)O)C(=O)N[C@@H](CCC(=O)O)C(=O)N[C@@H](CCC(=O)O)C(=O)N[C@@H](CCC(=O)O)C(=O)N[C@@H](Cc1ccc(OP(=O)(O)O)cc1)C(=O)O [compound 1, Pyn-(L)-EEEEEpY] ({Acetyl(1-pyrenyl)}-EEEEE[pY]-OH)
time to almost complete proteolysis ([1]; 1 mg/mL proteinase K, 37 °C, neutral pH, 1 mM monomeric peptide, LC/MS): ≤ 30 min | thalf of Pyn-(L)-EEEEEpY (1) in proteinase K digestion ([1]; 1 mg/mL proteinase K, 37 °C, neutral pH, double-distilled water, 1 mM 1 alone or 500 μM 1 with 2 equiv of 2 or 4, sampled 5 min, 30 min, 2 h, 24 h, kinetic analysis of HPLC peak areas (LC/MS)): approximately 10 min | half-life at 1 mM ([1]; isolated enzyme proteinase k): 10 min | half-life [2]: 4.7 min | time to complete dephosphorylation [3]: ≤ 30 min

O=C(O)CC[C@@H](NC(=O)Cc1ccc2ccc3cccc4ccc1c2c34)C(=O)N[C@H](CCC(=O)O)C(=O)N[C@H](CCC(=O)O)C(=O)N[C@H](CCC(=O)O)C(=O)N[C@H](CCC(=O)O)C(=O)N[C@H](Cc1ccc(OP(=O)(O)O)cc1)C(=O)O [compound 3, Pyn-(D)-eeeeepy] ({Acetyl(1-pyrenyl)}-[dE][dE][dE][dE][dE][d(pY)]-OH)
half-life [2]: 9.6 min | time to complete dephosphorylation [3]: ≤ 30 min
